Measurements published in patent US20260365682A1, “MODULATORS OF TNF-ALPHA ACTIVITY” (Forward Therapeutics, Inc., priority 2022, published 2026).
Where two headings read alike, the source gives them in different places.

Molecular target: T1, TNF-α (Homo sapiens, UniProt P01375)
T1 construct: purchased R&D 210-TA-020/CF
Experiment: TNF-α Induced HEK Blue Cellular Assay (secreted alkaline phosphatase expression, QUANTI-Blue)
Assay type: cell-based
Conditions: HEK Blue TNFα reporter cells, TNF-α 100 μg/ml, 24 hrs at 37° C., inhibition of secreted alkaline phosphatase
How it was run: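 Compound was serially diluted from […] to 0.5 nM final, then incubated with 10,000 HEK Blue TNFα reporter cells per well and […] TNF-α for 24 h at 37° C. SEAP output was read by QUANTI-Blue absorbance at 620 nm. Inhibition was background-corrected against DMSO controls with and without stimulation, and IC50 was fitted with a 4-parameter logistic equation.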

T1 sequence (P01375 77-233 limits assumed): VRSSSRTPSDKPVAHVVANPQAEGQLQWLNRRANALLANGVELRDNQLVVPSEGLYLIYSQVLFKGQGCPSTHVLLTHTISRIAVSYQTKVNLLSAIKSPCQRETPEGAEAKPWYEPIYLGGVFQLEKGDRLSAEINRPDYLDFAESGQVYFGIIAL

Row | Structure (SMILES) | IC50 (read-out: IC50 value) [nM] | IC50 (IC50 value) [nM]
1 | [2H]C([2H])([2H])N1C(=O)c2cccc(OC(F)F)c2[C@H]2C[C@@H]1c1nc3ccc(C#CC4CCCN(C)C4)cc3n12 (stereo partly drawn) [Example 63, (7R,14R)-1-(difluoromethoxy)-6-(methyl-d3)-11-((1-methylpiperidin-3-yl)ethynyl)-6,7-dihydro-7,14-methanobenzo[f]benzo[4,5]imidazo[1,2-a][1,4]diazocin-5(14H)-one] | < 100 | –
2 | [2H]C([2H])([2H])N1C(=O)c2cccc(OC(F)F)c2[C@H]2C[C@@H]1c1nc3ccc(C#CC(C)(C)N)cc3n12 [Example 64, (7R,14R)-11-(3-amino-3-methylbut-1-yn-1-yl)-1-(difluoromethoxy)-6-(methyl-d3)-6,7-dihydro-7,14-methanobenzo[f]benzo[4,5]imidazo[1,2-a][1,4]diazocin-5(14H)-one] | 10000 to 30000 | –
3 | [2H]C([2H])([2H])N1C(=O)c2cccc(OC(F)F)c2[C@H]2C[C@@H]1c1nc3ccc(C#CCNCC)cc3n12 [Example 65, (7R,14R)-1-(difluoromethoxy)-11-(3-(ethylamino)prop-1-yn-1-yl)-6-(methyl-d3)-6,7-dihydro-7,14-methanobenzo[f]benzo[4,5]imidazo[1,2-a][1,4]diazocin-5(14H)-one] | 10000 to 30000 | –
4 | [2H]C([2H])([2H])N1C(=O)c2cccc(OC(F)F)c2[C@H]2C[C@@H]1c1nc3ccc(C#CCNC(C)C)cc3n12 [Example 66, (7R,14R)-1-(difluoromethoxy)-11-(3-(isopropylamino)prop-1-yn-1-yl)-6-(methyl-d3)-6,7-dihydro-7,14-methanobenzo[f]benzo[4,5]imidazo[1,2-a][1,4]diazocin-5(14H)-one] | 100 to 1000 | –
5 | [2H]C([2H])([2H])N1C(=O)c2cccc(OC(F)F)c2[C@H]2C[C@@H]1c1nc3ccc(C#CCN(C)CC)cc3n12 [Example 67, (7R,14R)-1-(difluoromethoxy)-11-(3-(ethyl(methyl)amino)prop-1-yn-1-yl)-6-(methyl-d3)-6,7-dihydro-7,14-methanobenzo[f]benzo[4,5]imidazo[1,2-a][1,4]diazocin-5(14H)-one] | 100 to 1000 | –
6 | [2H]C([2H])([2H])N1C(=O)c2cccc(OC(F)F)c2[C@H]2C[C@@H]1c1nc3ccc(C#CC4CN(C)C4)cc3n12 [Example 68, (7R,14R)-1-(difluoromethoxy)-6-(methyl-d3)-11-((1-methylazetidin-3-yl)ethynyl)-6,7-dihydro-7,14-methanobenzo[f]benzo[4,5]imidazo[1,2-a][1,4]diazocin-5(14H)-one] | < 100 | –
7 | [2H]C([2H])([2H])N1C(=O)c2cccc(OC(F)F)c2[C@H]2C[C@@H]1c1nc3ccc(C#CC4CNC4)cc3n12 [Example 69, (7R,14R)-11-(azetidin-3-ylethynyl)-1-(difluoromethoxy)-6-(methyl-d3)-6,7-dihydro-7,14-methanobenzo[f]benzo[4,5]imidazo[1,2-a][1,4]diazocin-5(14H)-one] | 100 to 1000 | –
8 | [2H]C([2H])([2H])N1C(=O)c2cccc(OC(F)F)c2[C@H]2C[C@@H]1c1nc3ccc(C#CCNC(C)(C)C)cc3n12 [Example 70, (7R,14R)-11-(3-(tert-butylamino)prop-1-yn-1-yl)-1-(difluoromethoxy)-6-(methyl-d3)-6,7-dihydro-7,14-methanobenzo[f]benzo[4,5]imidazo[1,2-a][1,4]diazocin-5(14H)-one] | 10000 to 30000 | –
9 | [2H]C([2H])([2H])N1C(=O)c2cccc(OC(F)F)c2[C@H]2C[C@@H]1c1nc3ccc(C#CC4CCNC4)cc3n12 (stereo partly drawn) [Example 71, (7R,14R)-1-(difluoromethoxy)-6-(methyl-d3)-11-(pyrrolidin-3-ylethynyl)-6,7-dihydro-7,14-methanobenzo[f]benzo[4,5]imidazo[1,2-a][1,4]diazocin-5(14H)-one] | 100 to 1000 | –
10 | [2H]C([2H])([2H])N1C(=O)c2cccc(OC(F)F)c2[C@H]2C[C@@H]1c1nc3ccc(C#CCOC(C)CO)cc3n12 (stereo partly drawn) [Example 72, (7R,14R)-1-(difluoromethoxy)-11-(3-((1-hydroxypropan-2-yl)oxy)prop-1-yn-1-yl)-6-(methyl-d3)-6,7-dihydro-7,14-methanobenzo[f]benzo[4,5]imidazo[1,2-a][1,4]diazocin-5(14H)-one] | < 100 | –
11 | [2H]C([2H])([2H])N1C(=O)c2cccc(OC(F)F)c2[C@H]2C[C@@H]1c1nc3ccc(C#CCOCC(C)O)cc3n12 (stereo partly drawn) [Example 73, (7R,14R)-1-(difluoromethoxy)-11-(3-(2-hydroxypropoxy)prop-1-yn-1-yl)-6-(methyl-d3)-6,7-dihydro-7,14-methanobenzo[f]benzo[4,5]imidazo[1,2-a][1,4]diazocin-5(14H)-one] | < 100 | –
12 | [2H]C([2H])([2H])N1C(=O)c2cccc(OC(F)F)c2[C@H]2C[C@@H]1c1nc3ccc(C#CCOC(C)C)cc3n12 [Example 74, (7R,14R)-1-(difluoromethoxy)-11-(3-isopropoxyprop-1-yn-1-yl)-6-(methyl-d3)-6,7-dihydro-7,14-methanobenzo[f]benzo[4,5]imidazo[1,2-a][1,4]diazocin-5(14H)-one] | < 100 | –
13 | [2H]C([2H])([2H])N1C(=O)c2cccc(OC(F)F)c2[C@H]2C[C@@H]1c1nc3ccc(C#CC(C)C)cc3n12 [Example 75, (7R,14R)-1-(difluoromethoxy)-6-(methyl-d3)-11-(3-methylbut-1-yn-1-yl)-6,7-dihydro-7,14-methanobenzo[f]benzo[4,5]imidazo[1,2-a][1,4]diazocin-5(14H)-one] | 100 to 1000 | –
14 | [2H]C([2H])([2H])N1C(=O)c2cccc(OC(F)F)c2[C@H]2C[C@@H]1c1nc3ccc(C#CC4CCN(C)C4)cc3n12 (stereo partly drawn) [Example 76, (7R,14R)-1-(difluoromethoxy)-6-(methyl-d3)-11-((1-methylpyrrolidin-3-yl)ethynyl)-6,7-dihydro-7,14-methanobenzo[f]benzo[4,5]imidazo[1,2-a][1,4]diazocin-5(14H)-one] | < 100 | –
15 | [2H]C([2H])([2H])N1C(=O)c2cccc(OC(F)F)c2[C@H]2C[C@@H]1c1nc3ccc(C#CCCOC)cc3n12 [Example 77, (7R,14R)-1-(difluoromethoxy)-11-(4-methoxybut-1-yn-1-yl)-6-(methyl-d3)-6,7-dihydro-7,14-methanobenzo[f]benzo[4,5]imidazo[1,2-a][1,4]diazocin-5(14H)-one] | < 100 | –
16 | [2H]C([2H])([2H])N1C(=O)c2cccc(OC(F)F)c2[C@H]2C[C@@H]1c1nc3ccc(C#CC(C)OCC)cc3n12 (stereo partly drawn) [Example 78, (7R,14R)-1-(difluoromethoxy)-11-(3-ethoxybut-1-yn-1-yl)-6-(methyl-d3)-6,7-dihydro-7,14-methanobenzo[f]benzo[4,5]imidazo[1,2-a][1,4]diazocin-5(14H)-one] | 100 to 1000 | –
17 | [2H]C([2H])([2H])N1C(=O)c2cccc(OC(F)F)c2[C@H]2C[C@@H]1c1nc3ccc(C#CCOc4ccccc4)cc3n12 [Example 79, (7R,14R)-1-(difluoromethoxy)-6-(methyl-d3)-11-(3-phenoxyprop-1-yn-1-yl)-6,7-dihydro-7,14-methanobenzo[f]benzo[4,5]imidazo[1,2-a][1,4]diazocin-5(14H)-one] | 100 to 1000 | –
18 | [2H]C([2H])([2H])N1C(=O)c2cccc(OC(F)F)c2[C@H]2C[C@@H]1c1nc3ccc(C#CC4COC4)cc3n12 [Example 80, (7R,14R)-1-(difluoromethoxy)-6-(methyl-d3)-11-(oxetan-3-ylethynyl)-6,7-dihydro-7,14-methanobenzo[f]benzo[4,5]imidazo[1,2-a][1,4]diazocin-5(14H)-one] | < 100 | –
19 | [2H]C([2H])([2H])N1C(=O)c2cccc(OC(F)F)c2[C@H]2C[C@@H]1c1nc3ccc(C#CCC4(O)COC4)cc3n12 [Example 81, (7R,14R)-1-(difluoromethoxy)-11-(3-(3-hydroxyoxetan-3-yl)prop-1-yn-1-yl)-6-(methyl-d3)-6,7-dihydro-7,14-methanobenzo[f]benzo[4,5]imidazo[1,2-a][1,4]diazocin-5(14H)-one] | 100 to 1000 | –
20 | [2H]C([2H])([2H])N1C(=O)c2cccc(OC(F)F)c2[C@H]2C[C@@H]1c1nc3ccc(C#CCC(C)(C)O)cc3n12 [Example 82, (7R,14R)-1-(difluoromethoxy)-11-(4-hydroxy-4-methylpent-1-yn-1-yl)-6-(methyl-d3)-6,7-dihydro-7,14-methanobenzo[f]benzo[4,5]imidazo[1,2-a][1,4]diazocin-5(14H)-one] | 10000 to 30000 | –
21 | [2H]C([2H])([2H])N1C(=O)c2cccc(OC(F)F)c2[C@H]2C[C@@H]1c1nc3ccc(C#CCCCO)cc3n12 [Example 83, (7R,14R)-1-(difluoromethoxy)-11-(5-hydroxypent-1-yn-1-yl)-6-(methyl-d3)-6,7-dihydro-7,14-methanobenzo[f]benzo[4,5]imidazo[1,2-a][1,4]diazocin-5(14H)-one] | < 100 | –
22 | [2H]C([2H])([2H])N1C(=O)c2cccc(OC(F)F)c2[C@H]2C[C@@H]1c1nc3ccc(C#CCC)cc3n12 [Example 84, (7R,14R)-11-(but-1-yn-1-yl)-1-(difluoromethoxy)-6-(methyl-d3)-6,7-dihydro-7,14-methanobenzo[f]benzo[4,5]imidazo[1,2-a][1,4]diazocin-5(14H)-one] | – | < 100
23 | [2H]C([2H])([2H])N1C(=O)c2cccc(OC(F)F)c2[C@H]2C[C@@H]1c1nc3ccc(C#CC4CC4)cc3n12 [Example 85, (7R,14R)-11-(cyclopropylethynyl)-1-(difluoromethoxy)-6-(methyl-d3)-6,7-dihydro-7,14-methanobenzo[f]benzo[4,5]imidazo[1,2-a][1,4]diazocin-5(14H)-one] | < 100 | –
24 | [2H]C([2H])([2H])N1C(=O)c2cccc(OC(F)F)c2[C@H]2C[C@@H]1c1nc3ccc(C#CCCCC#N)cc3n12 [Example 86, 6-((7R,14R)-1-(difluoromethoxy)-6-(methyl-d3)-5-oxo-5,6,7,14-tetrahydro-7,14-methanobenzo[f]benzo[4,5]imidazo[1,2-a][1,4]diazocin-11-yl)hex-5-ynenitrile] | < 100 | –
